One series concerns parent H1299 cells. Nature of the series: MCL1 and growth in parental H1299 cells. In kind it is cell-based, human. As to the method:
Real time monitoring of cell growth was performed with the IncuCyte ZOOM live cell imaging system (Essen BioSciences, USA). Cells were seeded in 96 well plates (Corning, cat#353072) and treated on the next day. The resulting phase-contrast images were analysed using IncuCyte ZOOM 2018A software and results were expressed as percentage confluency of cells.
After seeding overnight in 6 well plates (Corning, cat#353046), cells were treated with compounds for the indicated times and concentration, harvested and the cell pellet lysed on ice in cell lysis buffer (Cell Signaling, cat#9803), supplemented with 1x Halt^TM protease inhibitor cocktail (Fisher Scientific, cat#78429) and cOmplete^TM protease inhibitor cocktail (Sigma-Aldrich, cat#11836153001) for 1 hr. Protein was quantified using BCA protein kit (Fisher Scientific, cat#23225). Western blot was performed using NuPAGE^TM 4–12% Bis-Tris gels (Fisher Scientific, cat#NP0336BOX) and transferred using the Invitrogen iBLOT^TM gel transfer device system (Fisher Scientific, Cat#IB21001). […] All primary antibodies were diluted (1:1000) in 5% BSA (Sigma-Aldrich, cat#A7906) in 1x TBS and 0.1% Tween 20 (Sigma-Aldrich, cat#P1379), except for vinculin (1:2000) that was diluted in casein blocker (Sigma-Aldrich, cat#1610782). […] Quantitative densitometry analysis of protein bands was performed using Image J v1.53 software.

Series [1] concerns 4E-BP1 protein expression. Nature of the series: Immunoblot of 4E-BP1 expression after dTAGV-1. In kind it is cell-based, human. The following applies: 1μM, control = 1.00. As to the method:
Supplementary Fig. 15 Expression of 4E-BP1 following dTAGV-1 treatment. a […]
16 hr treatment of 1 µM dTAGV-1 or DMSO control in H1299 parental cells and the […]
Vinculin was used as a loading control. Results are representative of 3 biological replicates. b Quantification of 4E-BP1 protein expression […]
was normalised to the DMSO negative control immunoblot (mean ± SEM of 3 […]
differences (p<0.05). Source data is located in the Supplementary Source Data file.
(§1) (1 picture or pasted object on this page, not shown here)

The format of series [2] is physicochemical.
Description: Chrom kinetic Plasma Caco-2 microsomal
Cmpd Chemical MW LogD solubility protein permeability intrinsic
# Structure (Da) (pH binding (Papp x10-6 clearance […]
Supplementary notes Table Physicochemical and in vitro pharmacokinetic properties of compound 4.
Experimental procedures for the measurement of ChromLogD, aqueous solubility, plasma protein binding, Caco2 permeability and microsomal […]
Determination of Chromatographic LogD (ChromLogD7.4)
Chromatographic hydrophobicity index (CHI) values were measured using reversed phase HPLC column (PolymerX RP-1, Phenomenex, UK) with a fast acetonitrile gradient at starting mobile phase of pH = 7.4. CHI values are derived directly from the gradient retention times by using a calibration line obtained for standard compounds.
The CHI value approximates to the volume % organic concentration when the compound elutes. CHI is linearly transformed into ChromLogD7.4 by least-square fitting of experimental CHI values to calculated C logP values for over 20,000 research compounds using the following formula: ChromLogD7.4 = 0.0857CHI-2.001.
as §1

Series [3] in a line: Suppl Fig. 10c, concentration response of Compound 4 (test not named). The following applies: 3 experiments.
Series [4] can be described thus: Aqueous kinetic solubility at pH 7.5 by qNMR. In kind it is physicochemical. To be noted: 50 mM HEPES, 100 mM NaCl, 1 mM TCEP. The protocol: Measurement of aqueous kinetic solubility at pH 7.5
Solubility was measured in 50 mM HEPES, 100 mM NaCl (15% D2O, 85% H2O) in the presence of 1 mM TCEP at pH 7.5. Samples were prepared at 50 mM in DMSO-d6, diluted x 50 into buffer affording nominal concentrations of 1 mM and analysed by 1H quantitative NMR. Spectra were acquired at 300K in 5 mm tubes on a 400 MHz Bruker Avance III HD spectrometer equipped with a BBO-F probe using water suppression (presat/Watergate). A 5 mM sample of 4-hydroxybenzoic acid was used

In the next series the target is eIF4E:eIF4G interaction (Homo sapiens, UniProt P06730). Kind of series: Electro-chemiluminescent binding assay, eIF4E:eIF4G, SW620 cell lysates. In kind it is biochemical. Set-up: endogenous in cells; host or cells: SW620 cells (lysates). To be noted: for eIF4G:eIF4E luminescence signal normalised to DMSO control: SW620, Expt 1, Expt 2, Fig. 4d. The protocol: This assay uses plates with carbon electrodes and electro-chemiluminescent labels (SULFO-TAGs) that are conjugated to detection antibodies. When an electric current is applied to the plate electrodes the SULFO-TAG labels will emit light that is measured to quantify analytes in the sample. […] The plates were washed with 3 ×150 µl/well MSD wash buffer (cat#R61AA-1; 0.2% Tween-20 in PBS), then blocked with 150 µl/well block buffer (MSD, cat# R93AA) for 1 h. […] The incubated plates were washed 4x in 150 µl in MSD wash buffer and were re-blocked by the addition of 25 μl of blocking buffer containing a 1:500 dilution of the secondary antibody and incubated for 1 hr at RT with rotational shaking. […] Plates were then washed again 4x in 150 µl in MSD wash buffer and 25 μl of a 1:50 dilution of Goat anti-rabbit Sulfo-Tag (MSD, Cat# R32AB-1) in MSD blocking buffer was added and the plates incubated for 1 h at RT with rotational shaking. After a final wash step, 150 μl Read Buffer T4X (MSD, Cat# R92-TC2) was added and the plate read using the MSD QuickPlex SQ 120 plate reader.

The structures appear in SMILES notation. pEC50: −log10 of the molar value. Values joined by “and” are separate entries in the source; they are usually repeats but may differ in a detail not shown here. Equal entries are not always repeated.

eIF4E:eIF4G interaction, sequence (P06730 2-217 limits assumed): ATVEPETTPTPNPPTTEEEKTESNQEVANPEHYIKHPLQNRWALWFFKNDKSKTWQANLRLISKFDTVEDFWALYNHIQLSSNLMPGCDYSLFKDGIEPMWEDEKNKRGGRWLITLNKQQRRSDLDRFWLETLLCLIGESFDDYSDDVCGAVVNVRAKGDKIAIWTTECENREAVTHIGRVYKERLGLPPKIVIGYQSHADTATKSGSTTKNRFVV

On to `CC[C@H](C(=O)N1CCCC[C@H]1C(=O)O[C@H](CCc1ccc(OC)c(OC)c1)c1ccccc1OCC(=O)NCCCCCCC(=O)N[C@H](C(=O)N1C[C@H](O)C[C@H]1C(=O)N[C@@H](C)c1ccc(-c2scnc2C)cc1)C(C)(C)C)c1cc(OC)c(OC)c(OC)c1` [dTAG^V-1], for which, in the series with parent H1299 cells, the “effect on MCL1 or proliferation in parent cells” value is “no effect on MCL1 or proliferation”. The “Quantification of 4E-BP1 protein expression, Average” value in series [1] (H1299 cells) is listed as 0.99; in series [1] (eIF4E dTAG C3-1 clone), 0.88.
The term pEC50 denotes −log10 of the EC50, conventionally taken in molar units. For `CC[C@H](O[C@H](C)CO)c1ccc(-c2ccccc2F)cc1NCCO` [Compound 4], in series [2], the “Chrom LogD (pH 7.5)” value is 4.6. In addition, the “Suppl Fig. 10c signal, Average” value in series [3] (Conc 0.0398 uM) is 107.08; in series [3] (Conc 0.0794 uM), 87.69; in series [3] (Conc 0.1585 uM), 100.85; in series [3] (Conc 0.3126 uM), 97.88; in series [3] (Conc 0.6252 uM), 95.93; in series [3] (Conc 1.0000 uM) it was 93.39. Further, the entries for the “Suppl Fig. 10c signal, Average” value in series [3] (Conc 1.9999 uM), in series [3] (Conc 3.9994 uM) and in series [3] (Conc 10.0000 uM) were 114.58, 94.77 and 126.74, respectively. For the same molecule, in series [4], the “Aqueous kinetic solubility (pH7.5)” value is on record as 400 µM. In addition, the “eIF4G:eIF4E luminescence signal normalised to DMSO control” value is 89% and 92.6% at eIF4E:eIF4G interaction (0.4 μM); 47.4% and 46.9% at eIF4E:eIF4G interaction (4 μM); 33.5% and 31.6% on eIF4E:eIF4G interaction (12 μM); 20.4% and 20.8% on eIF4E:eIF4G interaction (40 μM). The “eIF4G:eIF4E SW620, luminescence ratio normalised to DMSO control” value on eIF4E:eIF4G interaction (SW620 lysates, 100 µM, 30 min, single experiments Expt 1, Expt 2) is 23% and 19%. Besides, the pEC50 on eIF4E:eIF4G interaction (read-out: EC50, eIF4G binding to eIF4E, SW620 cell lysates, 30 min) was 5.59.

These data come from publication PMC11868579 (Nature Communications, 2024).
